Results from publication PMC7176092, “Development of the first in vivo GPR17 ligand through an iterative drug discovery pipeline: A novel disease-modifying strategy for multiple sclerosis” (PLoS ONE, 2020).
“And” between values parts separate entries of the source, which are not always exact repeats. Equal values may be shown once. Read-outs that look alike come from different tables or passages of the source.

Legend:
[1] = target: T1, M3 (Homo sapiens, UniProt P20309); experiment: Binding assay M3; details: 100 nM
T1 construct: Eurofins Cerep (external service)
T1 sequence (P20309 whole entry): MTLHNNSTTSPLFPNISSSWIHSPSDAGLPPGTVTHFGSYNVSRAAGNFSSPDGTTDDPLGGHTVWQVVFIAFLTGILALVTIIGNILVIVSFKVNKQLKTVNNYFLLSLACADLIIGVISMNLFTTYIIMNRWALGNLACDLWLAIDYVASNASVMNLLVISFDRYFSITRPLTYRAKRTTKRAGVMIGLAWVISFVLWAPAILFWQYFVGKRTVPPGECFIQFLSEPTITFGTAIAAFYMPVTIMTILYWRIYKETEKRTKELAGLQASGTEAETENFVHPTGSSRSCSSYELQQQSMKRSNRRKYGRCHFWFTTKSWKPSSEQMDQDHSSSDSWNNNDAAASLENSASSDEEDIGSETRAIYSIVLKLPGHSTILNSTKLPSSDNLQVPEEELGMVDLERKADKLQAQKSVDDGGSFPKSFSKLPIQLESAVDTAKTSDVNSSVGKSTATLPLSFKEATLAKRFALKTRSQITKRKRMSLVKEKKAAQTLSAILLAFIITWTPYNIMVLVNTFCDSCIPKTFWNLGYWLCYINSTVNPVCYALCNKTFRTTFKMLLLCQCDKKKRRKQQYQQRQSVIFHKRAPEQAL

[2] = target: T2, CXCR5 (Homo sapiens, UniProt P32302); experiment: Cellular functional assay CXCR5
T2 sequence (P32302 1-372): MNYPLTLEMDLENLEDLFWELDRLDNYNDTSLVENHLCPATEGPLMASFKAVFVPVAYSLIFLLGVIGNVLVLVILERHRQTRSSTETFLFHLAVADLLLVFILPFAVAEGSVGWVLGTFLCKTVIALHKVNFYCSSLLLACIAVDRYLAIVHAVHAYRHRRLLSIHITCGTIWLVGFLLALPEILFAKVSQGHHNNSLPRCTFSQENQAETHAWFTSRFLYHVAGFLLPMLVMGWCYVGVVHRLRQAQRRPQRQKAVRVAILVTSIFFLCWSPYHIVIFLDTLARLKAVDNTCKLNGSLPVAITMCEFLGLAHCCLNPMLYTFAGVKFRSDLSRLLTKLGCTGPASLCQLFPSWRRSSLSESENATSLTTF

[3] = target: T3, CXCR1 (Homo sapiens, UniProt P25024); experiment: Cellular functional assay CXCR1
T3 sequence (P25024 1-350): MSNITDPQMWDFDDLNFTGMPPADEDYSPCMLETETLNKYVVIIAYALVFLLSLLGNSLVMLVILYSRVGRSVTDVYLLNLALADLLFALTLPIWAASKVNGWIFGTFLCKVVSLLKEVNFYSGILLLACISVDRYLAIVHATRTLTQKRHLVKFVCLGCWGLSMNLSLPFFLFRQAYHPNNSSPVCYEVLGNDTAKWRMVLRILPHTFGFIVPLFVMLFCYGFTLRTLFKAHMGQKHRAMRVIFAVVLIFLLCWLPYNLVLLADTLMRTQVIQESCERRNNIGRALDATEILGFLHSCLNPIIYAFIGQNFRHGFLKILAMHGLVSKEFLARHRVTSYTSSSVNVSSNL

[4] = target: T4, AT1 (Homo sapiens, UniProt P30556); experiment: Binding assay AT1; details: 100 nM
T4 construct: Eurofins Cerep (external service)
T4 sequence (P30556 1-359): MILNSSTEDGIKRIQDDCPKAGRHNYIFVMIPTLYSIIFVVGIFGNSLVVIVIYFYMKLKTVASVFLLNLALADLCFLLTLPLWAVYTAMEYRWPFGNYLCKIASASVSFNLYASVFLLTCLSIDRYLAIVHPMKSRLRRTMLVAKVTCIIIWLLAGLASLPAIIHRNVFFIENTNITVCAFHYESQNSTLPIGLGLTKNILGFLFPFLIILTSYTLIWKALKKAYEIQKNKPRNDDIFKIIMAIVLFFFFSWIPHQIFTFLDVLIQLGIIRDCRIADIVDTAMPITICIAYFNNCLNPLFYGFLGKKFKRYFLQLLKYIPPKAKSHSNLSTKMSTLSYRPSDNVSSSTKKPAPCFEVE

[5] = target: CCR5 (Homo sapiens, UniProt P51681); experiment: Cellular functional assay CCR5
Chain of CCR5 (P51681 whole entry): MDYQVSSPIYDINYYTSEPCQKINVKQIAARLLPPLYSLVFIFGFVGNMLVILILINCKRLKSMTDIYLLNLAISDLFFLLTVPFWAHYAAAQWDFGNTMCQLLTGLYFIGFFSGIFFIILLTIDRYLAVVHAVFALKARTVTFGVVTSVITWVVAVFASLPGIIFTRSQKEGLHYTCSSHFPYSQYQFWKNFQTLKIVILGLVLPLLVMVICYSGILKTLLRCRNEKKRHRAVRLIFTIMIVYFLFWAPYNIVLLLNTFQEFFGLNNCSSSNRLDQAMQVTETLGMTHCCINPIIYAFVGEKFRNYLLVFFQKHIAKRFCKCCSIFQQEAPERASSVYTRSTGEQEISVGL

[6] = target: T5, ADR3 (Homo sapiens, UniProt P13945); experiment: Binding assay ADR3 (reference Alprenolol); details: 100 nM
T5 construct: Eurofins Cerep (external service)
T5 sequence (P13945 whole entry): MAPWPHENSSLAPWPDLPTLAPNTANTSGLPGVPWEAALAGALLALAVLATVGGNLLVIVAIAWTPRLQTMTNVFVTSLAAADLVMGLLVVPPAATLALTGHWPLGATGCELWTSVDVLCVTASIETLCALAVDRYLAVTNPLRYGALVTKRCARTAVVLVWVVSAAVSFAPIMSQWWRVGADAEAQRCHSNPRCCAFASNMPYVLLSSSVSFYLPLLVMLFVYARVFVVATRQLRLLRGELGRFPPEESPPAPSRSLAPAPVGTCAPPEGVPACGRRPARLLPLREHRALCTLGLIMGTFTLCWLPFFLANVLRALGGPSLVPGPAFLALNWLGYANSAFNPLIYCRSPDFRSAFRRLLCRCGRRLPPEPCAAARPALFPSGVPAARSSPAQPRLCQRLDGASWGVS

[7] = target: T6, CXCR3 (Homo sapiens, UniProt P49682); experiment: Cellular functional assay CXCR3
T6 sequence (P49682 1-368): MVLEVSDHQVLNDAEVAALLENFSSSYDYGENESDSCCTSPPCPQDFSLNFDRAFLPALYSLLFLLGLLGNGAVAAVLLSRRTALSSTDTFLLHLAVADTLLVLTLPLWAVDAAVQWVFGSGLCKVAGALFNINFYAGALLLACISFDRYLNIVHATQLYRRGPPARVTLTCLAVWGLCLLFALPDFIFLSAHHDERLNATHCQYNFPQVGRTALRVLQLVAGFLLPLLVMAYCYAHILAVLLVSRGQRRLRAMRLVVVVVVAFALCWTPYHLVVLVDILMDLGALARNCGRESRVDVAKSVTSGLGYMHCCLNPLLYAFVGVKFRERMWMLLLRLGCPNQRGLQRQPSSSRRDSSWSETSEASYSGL

[8] = target: T7, CCR4 (Homo sapiens, UniProt P51679); experiment: Cellular functional assay CCR4
T7 sequence (P51679 1-360): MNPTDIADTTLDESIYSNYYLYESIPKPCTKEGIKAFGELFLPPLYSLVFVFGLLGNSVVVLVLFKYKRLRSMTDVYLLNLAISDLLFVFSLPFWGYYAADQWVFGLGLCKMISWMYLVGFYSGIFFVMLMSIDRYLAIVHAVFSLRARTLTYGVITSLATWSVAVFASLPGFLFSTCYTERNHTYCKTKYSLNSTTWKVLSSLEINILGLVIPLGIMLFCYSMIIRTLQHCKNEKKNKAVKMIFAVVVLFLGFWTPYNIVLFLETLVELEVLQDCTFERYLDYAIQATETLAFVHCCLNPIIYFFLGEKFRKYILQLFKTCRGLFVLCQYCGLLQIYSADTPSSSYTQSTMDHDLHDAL

[9] = mean of 2, read-out: % Of control specific binding, Mean
[10] = read-out: % Inhibition of control specific binding
[11] = single replicates 1 and 2, 0.1 µM
[12] = single replicates 1 and 2, read-out: % Of control specific binding
[13] = antagonist effect, 100 nM, single replicates 1st and 2nd, 0.1 µM
[14] = read-out: % Inhibition of control agonist response
[15] = read-out: Agonist Response (% of Control), Mean, antagonist effect, 100 nM, mean of 2
[16] = read-out: Agonist Response (% of Control), antagonist effect, 100 nM, single replicates 1st and 2nd

remaining activity at 0.1 µM [1, 9]: 106% | inhibition at 0.1 µM [1, 10]: -6% | % Of control specific binding [1, 11]: 110.4% | remaining activity at 0.1 µM [1, 12]: 101% | Agonist Response (% of Control) [2, 13]: 99.7% | inhibition at 0.1 µM [2, 14]: 1.2% | activity at 0.1 µM [2, 15]: 102% | activity at 0.1 µM [2, 16]: 103% | Agonist Response (% of Control) [3, 13]: 105.5% | inhibition at 0.1 µM [3, 14]: -0.8% | activity at 0.1 µM [3, 15]: 96.3% | activity at 0.1 µM [3, 16]: 87.1% | remaining activity at 0.1 µM [4, 9]: 110% | inhibition at 0.1 µM [4, 10]: -10% | % Of control specific binding [4, 11]: 108.6% | remaining activity at 0.1 µM [4, 12]: 112% | inhibition at 0.1 µM ([5]; CCR5, read-out: % Inhibition of control agonist response): -1.5% | activity at 0.1 µM ([5]; CCR5, read-out: Agonist Response (% of Control), Mean, antagonist effect, 100 nM, mean of 2): 126% | Agonist Response (% of Control) [5, 13]: 140.8% and 112.0% | remaining activity at 0.1 µM [6, 9]: 99.1% | inhibition at 0.1 µM [6, 10]: 1% | % Of control specific binding [6, 11]: 95.7% | remaining activity at 0.1 µM [6, 12]: 102% | Agonist Response (% of Control) [7, 13]: 102.1% | inhibition at 0.1 µM [7, 14]: 0.3% | activity at 0.1 µM [7, 15]: 102% | activity at 0.1 µM [7, 16]: 103% | Agonist Response (% of Control) [8, 13]: 60.7% and 88.2% | inhibition at 0.1 µM [8, 14]: -0.1% | activity at 0.1 µM [8, 15]: 74.4%
SMILES: Cc1ccc(-c2nnc(SCC(=O)Nc3nccs3)[nH]2)cc1 [Compound 9]
